pIC50: −log10 of the molar value.

Our source for the IC50 values is patent US12240862B2, “Inhibitors of peptidylarginine deiminases” (Gilead Sciences, Inc., priority 2020, dated 2025).

The target in this experiment is T1, human PAD4 (Homo sapiens, UniProt Q9UM07).
T1 construct: human PAD4 (NM_012387), A2P663, was PCR amplified; His-SUMO (N, cleaved yes); made in house; host or cells: E. coli BL21(DE3)
T1 sequence (Q9UM07 2-663): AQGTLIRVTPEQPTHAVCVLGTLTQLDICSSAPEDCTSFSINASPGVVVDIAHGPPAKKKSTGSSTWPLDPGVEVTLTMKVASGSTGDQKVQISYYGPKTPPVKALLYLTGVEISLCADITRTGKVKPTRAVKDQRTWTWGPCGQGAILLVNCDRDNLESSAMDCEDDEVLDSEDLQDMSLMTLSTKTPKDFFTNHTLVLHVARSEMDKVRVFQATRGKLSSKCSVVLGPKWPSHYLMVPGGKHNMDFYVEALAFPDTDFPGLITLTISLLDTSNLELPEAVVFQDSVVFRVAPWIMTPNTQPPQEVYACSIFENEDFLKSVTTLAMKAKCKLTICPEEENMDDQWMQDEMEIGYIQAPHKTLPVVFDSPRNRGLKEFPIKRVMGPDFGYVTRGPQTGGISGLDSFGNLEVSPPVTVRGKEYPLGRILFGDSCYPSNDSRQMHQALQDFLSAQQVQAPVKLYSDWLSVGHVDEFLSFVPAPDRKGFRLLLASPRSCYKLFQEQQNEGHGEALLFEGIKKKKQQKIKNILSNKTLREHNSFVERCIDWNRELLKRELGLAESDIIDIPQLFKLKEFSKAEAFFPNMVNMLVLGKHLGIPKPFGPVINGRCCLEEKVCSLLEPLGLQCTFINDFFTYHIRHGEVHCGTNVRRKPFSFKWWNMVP
As to the kind of experiment: In vitro PAD4 BAEE biochemical assay. Particulars: human PAD4, BAEE substrate; 5 nM PAD4, 2 mM calcium chloride, 3 mM BAEE; geometric mean of multiple experiments. The method, boiled down: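 Ammonia release from BAEE deimination monitored by o-phthalaldehyde amine coupling (1 h, 25 °C) after EDTA stop. Final conditions: 5 nM tag-free recombinant human PAD4 (E. coli), 2 mM CaCl2, 3 mM BAEE, pH 7.6 MOPS with DTT; 30 min compound preincubation, then 2 h reaction at 25 °C.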
As to `COc1cc(C(=O)N2C[C@@H]3CCN[C@@H]3C2)cc2nc(-c3cc4ccc([C@@H](C)NC(=O)C56CC(F)(C5)C6)nc4n3CC3CC3)c(C)n12` [Example 20, ~{N}-[(1~{R})-1-[2-[7-[(3~{a}~{S}, 6~{a}~{S})-2,3,3~{a}, 4,6,6~{a}-hexahydro-1~{H}-pyrrolo[3,4-b]pyrrole-5-carbonyl]-5-methoxy-3-methylimidazo[1,2-a]pyridin-2-yl]-1-(cyclopropylmethyl)pyrrolo[2,3-b]pyridin-6-yl]ethyl]-3-fluorobicyclo[1.1.1] pentane-1-carboxamide], the pIC50 was 5.41.
As for `COc1cc(C(=O)N2[C@H]3CC[C@@H]2[C@H](N)C3)cc2nc(-c3cc4ccc(C(C)(O)c5ccccc5)nc4n3CC3CC3)c(C)n12` (stereo partly drawn) [Example 573, [(1~{R},2~{R},4~{S})-2-amino-7-azabicyclo [2.2.1]heptan-7-yl]-[2-[1-(cyclopropylmethyl)-6-(1-hydroxy-1-phenylethyl)pyrrolo[2,3-b]pyridin-2-yl]-5-methoxy-3-methylimidazo[1,2-a]pyridin-7-yl]methanone], the figure is 6.00; as for `COc1cc(C(=O)N2[C@H]3CC[C@@H]2[C@H](N)C3)cc2nc(-c3cc4ccc([C@@H](C)NC(=O)c5cnn6c5CCC6)nc4n3CC3CC3)c(C)n12` [Example 74, ~{N}-[(1~{R})-1-[2-[7-[(1~{R},2~{R},4~{S})-2-amino-7-azabicyclo[2.2.1]heptane-7-carbonyl]-5-methoxy-3-methylimidazo [1,2-a]pyridin-2-yl]-1-(cyclopropylmethyl)pyrrolo [2,3-b]pyridin-6-yl]ethyl]-5,6-dihydro-4~{H}-pyrrolo[1,2-b] pyrazole-3-carboxamide], 7.55.
As for `COc1cc(C(=O)N2CCC[C@@H](N)C2)cc2nc(-c3cc4ccc(OCC(N)=O)nc4n3CC3CC3)c(C)n12` [Example 621, 2-[2-[7-[(3~{R})-3-aminopiperidine-1-carbonyl]-5-methoxy-3-methylimidazo[1,2-a]pyridin-2-yl]-1-(cyclopropylmethyl)pyrrolo [2,3-b]pyridin-6-yl]oxyacetamide], the figure is 5.99; as for `COCC1(C(=O)N[C@H](C)c2ccc3cc(-c4nc5cc(C(=O)N6[C@H]7CC[C@@H]6[C@H](N)C7)cc(OC)n5c4C)n(CC4CC4)c3n2)CCC1` [Example 29, ~{N}-[(1~{R})-1-[2-[7-[(1~{R},2~{R},4~{S})-2-amino-7-azabicyclo [2.2.1]heptane-7-carbonyl]-5-methoxy-3-methylimidazo[1,2-a]pyridin-2-yl]-1-(cyclopropylmethyl)pyrrolo[2,3-b]pyridin-6-yl]ethyl]-1-(methoxymethyl) cyclobutane-1-carboxamide], 6.97; as for `COc1cc(C(=O)N2[C@H]3CC[C@@H]2[C@H](N)C3)cc2nc(-c3cc4ccc([C@@H](C)NC(=O)c5ccccc5F)nc4n3CC3CC3)c(C)n12` [Example 15, ~{N}-[(1~{R})-1-[2-[7-[(1~{R}, 2~{R},4~{S})-2-amino-7-azabicyclo [2.2.1]heptane-7-carbonyl]-5-methoxy-3-methylimidazo [1,2-a]pyridin-2-yl]-1-(cyclopropylmethyl)pyrrolo[2,3-b]pyridin-6-yl]ethyl]-2-fluorobenzamide], 6.53.
As for `COc1cc(C(=O)N2[C@H]3CC[C@@H]2[C@H](N)C3)cc2nc(-c3cc4ccc(N5CCCC(C)S5(=O)=O)nc4n3CC3CC3)c(C)n12` (stereo partly drawn) [Example 454, [(1~{R},2~{R},4~{S})-2-amino-7-azabicyclo [2.2.1]heptan-7-yl]-[2-[1-(cyclopropylmethyl)-6-(6-methyl-1,1-dioxothiazinan-2-yl)pyrrolo [2,3-b]pyridin-2-yl]-5-methoxy-3-methylimidazo[1,2-a]pyridin-7-yl]methanone], the figure is 6.84; as for `COc1cc(C(=O)N2CCC[C@@H](N)C2)cc2nc(-c3cc4ccc([C@@H](C)NC(=O)C56CC(F)(C5)C6)nc4n3CC3CC3)c(C)n12` [Example 125, ~{N}-[(1~{R})-1-[2-[7-[(3~{R})-3-aminopiperidine-1-carbonyl]-5-methoxy-3-methylimidazo[1,2-a]pyridin-2-yl]-1-(cyclopropylmethyl)pyrrolo[2,3-b]pyridin-6-yl]ethyl]-3-fluorobicyclo[1.1.1] pentane-1-carboxamide], 7.10.
Turning to `COc1cc(C(=O)N2CCC[C@@H](N)C2)cc2nc(-c3cc4ccc(Cl)nc4n3CC3CC3)c(C)n12` [Example 599, [(3~{R})-3-aminopiperidin-1-yl]-[2-[6-chloro-1-(cyclopropylmethyl)pyrrolo [2,3-b]pyridin-2-yl]-5-methoxy-3-methylimidazo[1,2-a]pyridin-7-yl]methanone], the pIC50 is 5.72.
For `COc1cc(C(=O)N(C)C)cc2nc(-c3cc4ccc([C@@H](C)N(C)C(=O)c5ccccc5)nc4n3CC3CC3)c(C)n12` [Example 184, 2-[6-[(1~{R})-1-[benzoyl (methyl)amino]ethyl]-1-(cyclopropylmethyl)pyrrolo [2,3-b]pyridin-2-yl]-5-methoxy-~{N},~{N},3-trimethylimidazo[1,2-a] pyridine-7-carboxamide] the value was 4.75.
For `COc1cc(C(=O)N2[C@H]3CC[C@@H]2[C@H](N)C3)cc2nc(-c3cc4ccc(C5CCCCN5C(=O)C(C)(C)C)nc4n3CC3CC3)c(C)n12` (stereo partly drawn) [Example 514, 1-(2-(2-(7-((1R,2R,4S)-2-amino-7-azabicyclo[2.2.1]heptane-7-carbonyl)-5-methoxy-3-methylimidazo[1,2-a]pyridin-2-yl)-1-(cyclopropylmethyl)-1H-pyrrolo[2,3-b]pyridin-6-yl)piperidin-1-yl)-2,2-dimethylpropan-1-one] the value was 6.13.
As for `COc1cc(C(=O)N2[C@H]3CC[C@@H]2[C@H](N)C3)cc2nc(-c3cc4ccc([C@@H](C)NC(=O)N(C)C(C)c5cccnc5)nc4n3CC3CC3)c(C)n12` (stereo partly drawn) [Example 221, 3-[(1~{R})-1-[2-[7-[(1~{R},2~{R},4~{S})-2-amino-7-azabicyclo[2.2.1]heptane-7-carbonyl]-5-methoxy-3-methylimidazo [1,2-a]pyridin-2-yl]-1-(cyclopropylmethyl)pyrrolo [2,3-b]pyridin-6-yl]ethyl]-1-methyl-1-(1-pyridin-3-ylethyl)urea], the figure is 7.21; as for `COc1cc(C(=O)N2[C@H]3CC[C@@H]2[C@H](N)C3)cc2nc(-c3cc4ccc([C@@H](C)NC(=O)c5ccn(C)n5)nc4n3CC3CC3)c(C)n12` [Example 108, ~{N}-[(1~{R})-1-[2-[7-[(1~{R},2~{R},4~{S})-2-amino-7-azabicyclo[2.2.1]heptane-7-carbonyl]-5-methoxy-3-methylimidazo [1,2-a]pyridin-2-yl]-1-(cyclopropylmethyl)pyrrolo [2,3-b]pyridin-6-yl]ethyl]-1-methylpyrazole-3-carboxamide], 7.28; as for `COc1cc(C(=O)N2[C@H]3CC[C@@H]2[C@H](N)C3)cc2nc(-c3cc4ccc([C@@H](C)NC(=O)CN=S(C)(C)=O)nc4n3CC3CC3)c(C)n12` [Example 96], 7.41.
For the compound `COc1cc(C(=O)N2CCC[C@@H](N)[C@H]2C)cc2nc(-c3cc4ccc(N(C)S(C)(=O)=O)nc4n3CC3CC3)c(C)n12` [Example 480, ~{N}-[2-[7-[(2~{R}, 3~{R})-3-amino-2-methylpiperidine-1-carbonyl]-5-methoxy-3-methylimidazo[1,2-a]pyridin-2-yl]-1-(cyclopropylmethyl)pyrrolo [2,3-b]pyridin-6-yl]-~{N}-methylmethanesulfonamide], the negative-log IC50 (pIC50) is 6.78.

As usually defined, the pIC50 is the IC50 on a negative log10 scale, so that one unit is a factor of ten.
